{
  "source": "patent US12016896B2",
  "about": "“Dipeptidomimetics as inhibitors of human immunoproteasomes” (CORNELL UNIVERSITY, priority 2014, dated 2024)",
  "key": {"[1]": {"target": "human immunoproteasome β5i (Homo sapiens, UniProt P28062)", "test": "IC50 against chymotryptic activity of human immunoproteasome (Hu i-20S, Ac-ANW-AMC substrate)", "assay_type": "biochemical", "conditions": "0.4 nM Hu i-20S, 15 μM Ac-ANW-AMC, 0.02% SDS, pH 7.4, 37° C.", "protocol": "(§1) Measurement of IC50s of Dipeptidomimetics Against Chymotryptic Activities of the Human Constitutive Proteasome and Immunoproteasome\n(§2) Assays were conducted on a SpectraMax Gemini plate-reader from Molecular Devices (Sunnyvale, CA). In a black 96-well plate, 100 μL of pre-warmed assay mixture containing 0.4 nM Hu i-20S or 0.2 nM Hu c-20S, 15 μM N-acetyl-Alanine-Asparagine-Tryptophan-7-amino-4-methylcoumarin (Ac-ANW-AMC) (substrate for i-20S) or 25 μM N-succinyl-Leucine-Leucine-Valine-Tyrosine-7-amino-4-methylcoumarin (suc-LLVY-AMC) (substrate for c-20S), 0.02% SDS in buffer (50 mM HEPES, 0.5 mM EDTA, pH 7.4) was added to the wells that contained 1 μL inhibitor at 100× indicated concentrations in DMSO. The reaction progress of each well was recorded by monitoring fluorescence at 460 nm (λex=360 nm) for 120 minutes at 37° C. Velocities were derived from the initial linear range of the curves and the IC50s were obtained by plotting the percentage of inhibitor versus inhibitor concentrations (FIG. 1). […]"}, "[2]": {"target": "human constitutive proteasome β5c (Homo sapiens, UniProt P28074)", "test": "IC50 against chymotryptic activity of human constitutive proteasome (Hu c-20S, suc-LLVY-AMC substrate)", "assay_type": "biochemical", "conditions": "0.2 nM Hu c-20S, 25 μM suc-LLVY-AMC, 0.02% SDS, pH 7.4, 37° C.", "protocol": "as §1, §2"}},
  "data": [
    {"smiles": "CC(C)(C)NC(=O)C[C@H](NC(=O)CCc1ccccc1)C(=O)NCCC(=O)NCc1cccc2ccccc12", "note": "[PKS21220]", "values": [
      {"measurement": "IC50", "setting": "[1]", "value": 0.655, "unit": "µM"},
      {"measurement": "IC50", "setting": "[2]", "value": 51.4, "unit": "µM"}
    ]},
    {"smiles": "C[C@@H](CC(=O)NCc1cccc2ccccc12)NC(=O)[C@H](CC(=O)NC(C)(C)C)NS(=O)(=O)c1ccccc1", "note": "[PKS2260, (S)—N^4-(tert-butyl)-N^1—((S)-4-((naphthalen-1-ylmethyl)amino)-4-oxobutan-2-yl)-2-(phenylsulfonamido)succinamide]", "values": [
      {"measurement": "IC50", "setting": "[1]", "value": 0.0112, "unit": "µM"},
      {"measurement": "IC50", "setting": "[2]", "value": 16.6, "unit": "µM"}
    ]},
    {"smiles": "C[C@@H](CC(=O)NCc1cccc2ccccc12)NC(=O)C[C@H](CC(=O)NC(C)(C)C)NC(=O)CCc1ccccc1", "note": "[PKS2292, (R)—N^1-(tert-butyl)-N^5—((S)-4-((naphthalen-1-ylmethyl)amino)-4-oxobutan-2-yl)-3-(3-phenylpropanamido)pentanediamide]", "values": [
      {"measurement": "IC50", "setting": "[1]", "value": "> 100", "unit": "µM"},
      {"measurement": "IC50", "setting": "[2]", "value": "> 100", "unit": "µM"}
    ]},
    {"smiles": "Cc1ccc(S(=O)(=O)N[C@@H](CCC(=O)NC(C)(C)C)CC(=O)N[C@@H](C)C(=O)NCc2cccc3ccccc23)cc1", "note": "[PK52290, (S)—N^6-(tert-butyl)-3-(4-methylphenylsulfonamido)-N^1—((S)-1-((naphthalen-1-ylmethyl)amino)-1-oxopropan-2-yl)hexanediamide]", "values": [
      {"measurement": "IC50", "setting": "[1]", "value": 1.6, "unit": "µM"},
      {"measurement": "IC50", "setting": "[2]", "value": 13.9, "unit": "µM"}
    ]},
    {"smiles": "C[C@@H](CC(=O)NCc1cccc2ccccc12)NC(=O)[C@H](CC(=O)NC(C)(C)C)NS(=O)(=O)C1CC1", "note": "[PK52295, (S)—N^4-(tert-butyl)-2-(cyclopropanesulfonamido)-N^1—((S)-4-((naphthalen-1-ylmethyl)amino)-4-oxobutan-2-yl)succinamide]", "values": [
      {"measurement": "IC50", "setting": "[1]", "value": 0.141, "unit": "µM"}
    ]},
    {"smiles": "C[C@H](NC(=O)C[C@H](CC(=O)NC(C)(C)C)NC(=O)OC(C)(C)C)C(=O)Nc1ccccc1", "note": "[PKS3065]", "values": [
      {"measurement": "IC50", "setting": "[1]", "value": "> 100", "unit": "µM"},
      {"measurement": "IC50", "setting": "[2]", "value": "> 100", "unit": "µM"}
    ]},
    {"smiles": "Cc1cc(C(=O)N[C@@H](CC(=O)NC(C)(C)C)C(=O)N[C@@H](C)CC(=O)NCc2cccc3ccccc23)no1", "note": "[PKS2249, (S)—N^4-(tert-butyl)-2-(5-methylisoxazole-3-carboxamido)-N^1—((S)-4-((naphthalen-1-ylmethyl)amino)-4-oxobutan-2-yl)succinamide]", "values": [
      {"measurement": "IC50", "setting": "[1]", "value": 0.18, "unit": "µM"},
      {"measurement": "IC50", "setting": "[2]", "value": 16.1, "unit": "µM"}
    ]},
    {"smiles": "C[C@@H](CC(=O)NCc1cccc2ccccc12)NC(=O)[C@H](CCC(=O)NC(C)(C)C)NC(=O)CCc1ccccc1", "note": "[PKS2253, (S)—N^5-(tert-butyl)-N^1—((S)-4-((naphthalen-1-ylmethyl)amino)-4-oxobutan-2-yl)-2-(3-phenylpropanamido)pentanediamide]", "values": [
      {"measurement": "IC50", "setting": "[1]", "value": 0.31, "unit": "µM"},
      {"measurement": "IC50", "setting": "[2]", "value": 17.8, "unit": "µM"}
    ]},
    {"smiles": "Cc1ccc(S(=O)(=O)N[C@H](CC(=O)N[C@@H](C)CC(=O)NCc2cccc3ccccc23)CC(=O)NC(C)(C)C)cc1", "note": "[PK52291, (R)—N^1-(tert-butyl)-3-(4-methylphenylsulfonamido)-N^5—((S)-4-((naphthalen-1-ylmethyl)amino)-4-oxobutan-2-yl)pentanediamide]", "values": [
      {"measurement": "IC50", "setting": "[1]", "value": 8.68, "unit": "µM"},
      {"measurement": "IC50", "setting": "[2]", "value": "> 100", "unit": "µM"}
    ]},
    {"smiles": "C[C@H](NC(=O)[C@H](CCC(=O)NC(C)(C)C)NC(=O)CCc1ccccc1)C(=S)NCc1cccc2ccccc12", "note": "[PKS3020]", "values": [
      {"measurement": "IC50", "setting": "[1]", "value": 0.799, "unit": "µM"},
      {"measurement": "IC50", "setting": "[2]", "value": 7, "unit": "µM"}
    ]},
    {"smiles": "C[C@@H](CC(=O)NCc1cccc2ccccc12)NC(=O)[C@H](CC(=O)NC(C)(C)C)NC(=O)CCc1ccccc1", "note": "[PKS2251, (S)—N^4-(tert-butyl)-N^1—((S)-4-((naphthalen-1-ylmethyl)amino)-4-oxobutan-2-yl)-2-(3-phenylpropanamido)succinamide]", "values": [
      {"measurement": "IC50", "setting": "[1]", "value": 0.045, "unit": "µM"},
      {"measurement": "IC50", "setting": "[2]", "value": 32.2, "unit": "µM"}
    ]},
    {"smiles": "Cc1ccc(S(=O)(=O)N[C@@H](CCC(=O)NC(C)(C)C)C(=O)N[C@@H](C)C(=S)NCc2cccc3ccccc23)cc1", "note": "[PK53021]", "values": [
      {"measurement": "IC50", "setting": "[1]", "value": 0.671, "unit": "µM"},
      {"measurement": "IC50", "setting": "[2]", "value": 13.4, "unit": "µM"}
    ]},
    {"smiles": "Cc1ccc(S(=O)(=O)N[C@@H](CC(=O)NC(C)(C)C)C(=O)N[C@@H](C)CC(=O)NCc2cccc3ccccc23)cc1", "note": "[PKS2252, (S)—N^4-(tert-butyl)-2-((4-methylphenyl)sulfonamido)-N^1—((S)-4-((naphthalen-1-ylmethyl)amino)-4-oxobutan-2-yl)succinamide]", "values": [
      {"measurement": "IC50", "setting": "[1]", "value": 0.0064, "unit": "µM"},
      {"measurement": "IC50", "setting": "[2]", "value": 8.81, "unit": "µM"}
    ]},
    {"smiles": "C[C@H](NC(=O)C[C@H](CC(=O)NC(C)(C)C)NC(=O)CCc1ccccc1)C(=O)NCc1cccc2ccccc12", "note": "[PKS2278, (R)—N^1-(tert-butyl)-N^5—((S)-1-((naphthalen-1-ylmethyl)amino)-1-oxopropan-2-yl)-3-(3-phenylpropanamido)pentanediamide]", "values": [
      {"measurement": "IC50", "setting": "[1]", "value": 2.26, "unit": "µM"},
      {"measurement": "IC50", "setting": "[2]", "value": "> 100", "unit": "µM"}
    ]},
    {"smiles": "C[C@@H](CC(=O)NCc1cccc2ccccc12)NC(=O)[C@H](CC(=O)NC(C)(C)C)NC(=O)C(=O)c1c[nH]c2ccccc12", "note": "[PKS3054]", "values": [
      {"measurement": "IC50", "setting": "[1]", "value": 0.0048, "unit": "µM"},
      {"measurement": "IC50", "setting": "[2]", "value": 0.234, "unit": "µM"}
    ]},
    {"smiles": "C[C@@H](CC(=O)NCc1cccc2ccccc12)NC(=O)[C@H](CC(=O)NC(C)(C)C)NC(=O)OC(C)(C)C", "note": "[PK52272, tert-butyl ((S)-4-(tert-butylamino)-1-(((S)-4-((naphthalen-1-ylmethyl)amino)-4-oxobutan-2-yl)amino)-1,4-dioxobutan-2-yl)carbamate]", "values": [
      {"measurement": "IC50", "setting": "[1]", "value": 0.152, "unit": "µM"},
      {"measurement": "IC50", "setting": "[2]", "value": "> 100", "unit": "µM"}
    ]},
    {"smiles": "Cc1ccc(S(=O)(=O)N[C@H](CC(=O)N[C@@H](C)C(=O)NCc2cccc3ccccc23)CC(=O)NC(C)(C)C)cc1", "note": "[PK52279, (R)—N^1-(tert-butyl)-3-(4-methylphenylsulfonamido)-N^5—((S)-1-((naphthalen-1-ylmethyl)amino)-1-oxopropan-2-yl)pentanediamide]", "values": [
      {"measurement": "IC50", "setting": "[1]", "value": 0.0145, "unit": "µM"},
      {"measurement": "IC50", "setting": "[2]", "value": 34.7, "unit": "µM"}
    ]},
    {"smiles": "C[C@@H](CC(=O)Nc1cccc2ccccc12)NC(=O)[C@H](CC(=O)NC(C)(C)C)NC(=O)CCc1ccccc1", "note": "[PKS3081]", "values": [
      {"measurement": "IC50", "setting": "[1]", "value": 13.7, "unit": "µM"},
      {"measurement": "IC50", "setting": "[2]", "value": "> 100", "unit": "µM"}
    ]}
  ]
}
